Experimental data: patent publication US20250296938A1, “Compounds that Interact with the Ras Superfamily for the Treatment of Cancers, Inflammatory Diseases, Rasopathies, and Fibrotic Disease” (SHY Therapeutics, LLC, priority 2018, published 2025)
Like-named read-outs stand apart in the source and are kept apart here.

Experiments:
Assay in all cases: Ras GTP binding domain inhibition assay (Cy3-GTP/Cy5-GTP competition)
Rac-1 = Rac-1 (Homo sapiens, UniProt P63000)
How it was run: (§1)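 First, His-tagged protein is coated on nickel wells overnight at 4 °C. Next, compound (20 μM single point or serial dilution) is added for 3 h at room temperature, with or without Sos exchange factor in the last hour. Finally, 100 nM labelled GTP binds for 45 min and retained signal is measured.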

KRas G12D mutant = target: T1, KRas G12D mutant (Homo sapiens, UniProt P01116, G12D); conditions: at 20 μM
T1 construct: fused on or other part: His tag, used for capture on nickel-coated plates
How it was run: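 His-tagged Ras proteins were captured on nickel-coated wells in Buffer-I (25 mM Tris-HCl pH 7.4, 27 mM KCl, 137 mM NaCl, 1 mM MgCl2, 1 mM DTT) or Buffer-II (50 mM Tris-HCl pH 7.0). Compounds (20 μM or serial dilution, 1% DMSO) were incubated 3 h at RT, ±Sos(556-1049) in the final hour. Bound Cy3-/Cy5-GTP (100 nM, 45 min) was read after washing.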

Rho-A = Rho-A (Homo sapiens, UniProt P61586)
How it was run: as §1

[1] = with SOS, read-out: Rac-1 + SOS: % inh.
[2] = without SOS, read-out: Rac-1: % inh.
[3] = with SOS, read-out: KRas G12D mutant + SOS: % inh.
[4] = without SOS, read-out: KRas G12D mutant: % inh.
[5] = with SOS, read-out: Rho-A + SOS: % inh.
[6] = without SOS, read-out: Rho-A: % inh.

inhibition at 20 µM (Rac-1; [1])	inhibition at 20 µM (Rac-1; [2])	inhibition at 20 µM (KRas G12D mutant; [3])	inhibition at 20 µM (KRas G12D mutant; [4])	inhibition at 20 µM (Rho-A; [5])	inhibition at 20 µM (Rho-A; [6])	Rac-1 + SOS: % inh. (Rac-1; at 20 μM, with SOS)	Rac-1: % inh. (Rac-1; at 20 μM, without SOS)	KRas G12D mutant + SOS: % inh. (KRas G12D mutant; with SOS)	KRas G12D mutant: % inh. (KRas G12D mutant; without SOS)	Rho-A + SOS: % inh. (Rho-A; at 20 μM, with SOS)	Rho-A: % inh. (Rho-A; at 20 μM, without SOS)	Structure (SMILES)
51 to 75%	51 to 75%	26 to 50%	51 to 75%	51 to 75%	51 to 75%	–	–	–	–	–	–	COc1c(O)nc(-c2ccccn2)nc1Oc1ccc(C(=O)N(C)C)cc1 [drawing 1014]
51 to 75%	51 to 75%	26 to 50%	26 to 50%	51 to 75%	51 to 75%	–	–	–	–	–	–	COc1c(O)nc(-c2ccccn2)nc1Nc1ccccc1 [drawing 1015]
76 to 100%	51 to 75%	26 to 50%	26 to 50%	51 to 75%	51 to 75%	–	–	–	–	–	–	CCn1cc(Nc2nc(-c3ccccn3)nc(O)c2OC)cn1 [drawing 1016]
76 to 100%	76 to 100%	26 to 50%	51 to 75%	51 to 75%	51 to 75%	–	–	–	–	–	–	CCOc1cccc(Nc2nc(-c3ccccn3)nc(O)c2OC)c1 [drawing 1017]
51 to 75%	26 to 50%	1 to 25%	1 to 25%	26 to 50%	26 to 50%	–	–	–	–	–	–	COc1c(F)cccc1-c1sc2nc(-c3nccn3C)nc(NC3CCC(OC)C3)c2c1-c1ccccc1 (stereo not drawn) [drawing 1021]
–	–	–	–	–	–	B (26-50% inhibition)	B (26-50% inhibition)	C (51-75% inhibition)	A (1-25% inhibition)	B (26-50% inhibition)	B (26-50% inhibition)	COc1cccc(-c2sc3nc(-c4nccn4C)nc(N4CCC(OC)C4)c3c2-c2ccccc2)c1F (stereo not drawn) [drawing 1025]
51 to 75%	51 to 75%	51 to 75%	26 to 50%	51 to 75%	51 to 75%	–	–	–	–	–	–	COc1cccc(-c2sc3nc(-c4nccn4C)nc(N[C@H]4C[C@@H](OC)C4)c3c2-c2ccccc2)c1F [drawing 1026]
76 to 100%	76 to 100%	76 to 100%	51 to 75%	76 to 100%	76 to 100%	–	–	–	–	–	–	CO[C@H]1C[C@@H](Nc2nc(-c3nccn3C)nc3sc(-c4cnn(C)c4)c(-c4ccccc4)c23)C1 [drawing 1027]
51 to 75%	51 to 75%	51 to 75%	76 to 100%	76 to 100%	76 to 100%	–	–	–	–	–	–	COc1cccc(-c2sc3nc(-c4nccn4C)nc(NC4CCC(OC)C4)c3c2C)c1F (stereo not drawn) [drawing 1028]
51 to 75%	51 to 75%	51 to 75%	26 to 50%	26 to 50%	51 to 75%	–	–	–	–	–	–	COC1CCC(Nc2nc(-c3nccn3C)nc3sc(-c4cccc5[nH]ncc45)c(C)c23)C1 (stereo not drawn) [drawing 1030]
76 to 100%	76 to 100%	51 to 75%	51 to 75%	76 to 100%	76 to 100%	–	–	–	–	–	–	COCCn1ccnc1-c1nc(O)c2scc(-c3ccc(OCC(C)C)nc3)c2n1 [drawing 1033]
76 to 100%	76 to 100%	51 to 75%	76 to 100%	76 to 100%	76 to 100%	–	–	–	–	–	–	CC(C)COc1ccc(-c2csc3c(O)nc(-c4nccn4Cc4ccccn4)nc23)cn1 [drawing 1034]
76 to 100%	76 to 100%	51 to 75%	51 to 75%	51 to 75%	76 to 100%	–	–	–	–	–	–	COc1cccc(Cn2ccnc2-c2nc(O)c3scc(-c4ccc(OCC(C)C)nc4)c3n2)c1 [drawing 1035]
51 to 75%	51 to 75%	26 to 50%	26 to 50%	76 to 100%	51 to 75%	–	–	–	–	–	–	CO[C@H]1CC[C@@H](Nc2nc(-c3nccn3C)nc(C(=O)N3CCc4c(O)cccc4C3)c2C)C1 [drawing 1036]
26 to 50%	26 to 50%	26 to 50%	26 to 50%	26 to 50%	26 to 50%	–	–	–	–	–	–	Cn1ccc(-c2sc3nc(-c4nccn4C)nc(O)c3c2-c2ccccc2)n1 [drawing 1039]
26 to 50%	26 to 50%	26 to 50%	26 to 50%	26 to 50%	26 to 50%	–	–	–	–	–	–	CO[C@H]1C[C@@H](Nc2nc(-c3ncc[nH]3)nc3sc(-c4ccn(C)n4)c(-c4ccccc4)c23)C1 [drawing 1045]

inhibition at 20 µM (Rac-1; [1])	inhibition at 20 µM (Rac-1; [2])	inhibition at 20 µM (KRas G12D mutant; [3])	inhibition at 20 µM (KRas G12D mutant; [4])	inhibition at 20 µM (Rho-A; [5])	inhibition at 20 µM (Rho-A; [6])	Rac-1 + SOS: % inh. (Rac-1; at 20 μM, with SOS)	Rac-1: % inh. (Rac-1; at 20 μM, without SOS)	KRas G12D mutant + SOS: % inh. (KRas G12D mutant; with SOS)	KRas G12D mutant: % inh. (KRas G12D mutant; without SOS)	Rho-A + SOS: % inh. (Rho-A; at 20 μM, with SOS)	Rho-A: % inh. (Rho-A; at 20 μM, without SOS)	Structure (SMILES)
51 to 75%	51 to 75%	51 to 75%	26 to 50%	26 to 50%	51 to 75%	–	–	–	–	–	–	CO[C@H]1CC[C@@H](Nc2nc(-c3ncc[nH]3)nc3sc(-c4ccn(C)n4)c(-c4ccccc4)c23)C1 [drawing 1046]
51 to 75%	51 to 75%	51 to 75%	51 to 75%	76 to 100%	76 to 100%	–	–	–	–	–	–	CO[C@H]1CC[C@@H](Nc2nc(-c3nccn3C)nc3sc(-c4ccn(C(C)C)n4)c(-c4ccccc4)c23)C1 [drawing 1047]
26 to 50%	26 to 50%	1 to 25%	26 to 50%	26 to 50%	26 to 50%	–	–	–	–	–	–	COc1nc(-c2ccccn2)nc2c(-c3ccccn3)csc12 [drawing 1048]
51 to 75%	51 to 75%	51 to 75%	51 to 75%	76 to 100%	76 to 100%	–	–	–	–	–	–	CO[C@H]1C[C@@H](Nc2nc(-c3nccn3C)nc3sc(-c4ccn(C)n4)c(C)c23)C1 [drawing 1049]
76 to 100%	76 to 100%	51 to 75%	26 to 50%	76 to 100%	76 to 100%	–	–	–	–	–	–	CO[C@H]1CC[C@@H](Nc2nc(-c3nccn3C)nc3sc(-c4ccn(C)n4)c(C)c23)C1 [drawing 1050]
51 to 75%	76 to 100%	76 to 100%	76 to 100%	51 to 75%	51 to 75%	–	–	–	–	–	–	Cc1c(-c2ccn(C)n2)sc2nc(-c3nccn3C)nc(NCCCS(C)(=O)=O)c12 [drawing 1051]
76 to 100%	76 to 100%	76 to 100%	51 to 75%	76 to 100%	76 to 100%	–	–	–	–	–	–	Cc1c(-c2ccn(C)n2)sc2nc(-c3nccn3C)nc(NCCCC(=O)N(C)C)c12 [drawing 1052]
51 to 75%	76 to 100%	76 to 100%	76 to 100%	51 to 75%	76 to 100%	–	–	–	–	–	–	Cc1c(-c2ccn(C)n2)sc2nc(-c3nccn3C)nc(NCCOC(=O)N(C)C)c12 [drawing 1053]
76 to 100%	76 to 100%	51 to 75%	51 to 75%	51 to 75%	51 to 75%	–	–	–	–	–	–	CO[C@H]1C[C@@H](Nc2nc(-c3nccn3C)nc3sc(C(=O)NC(C)C)c(-c4ccccc4)c23)C1 [drawing 1055]
76 to 100%	51 to 75%	51 to 75%	51 to 75%	51 to 75%	51 to 75%	–	–	–	–	–	–	COCCNC(=O)c1sc2nc(-c3nccn3C)nc(N[C@H]3C[C@@H](OC)C3)c2c1-c1ccccc1 [drawing 1056]
76 to 100%	51 to 75%	51 to 75%	51 to 75%	51 to 75%	51 to 75%	–	–	–	–	–	–	CO[C@H]1C[C@@H](Nc2nc(-c3nccn3C)nc3sc(C(=O)N4CCOCC4)c(-c4ccccc4)c23)C1 [drawing 1057]
51 to 75%	76 to 100%	51 to 75%	51 to 75%	76 to 100%	26 to 50%	–	–	–	–	–	–	COC1CCN(C(=O)c2sc3nc(-c4nccn4C)nc(N[C@H]4C[C@@H](OC)C4)c3c2-c2ccccc2)C1 (stereo partly drawn) [drawing 1058]
76 to 100%	76 to 100%	76 to 100%	76 to 100%	76 to 100%	76 to 100%	–	–	–	–	–	–	CO[C@H]1CC[C@@H](Nc2nc(-c3nccn3C)nc3sc(C(=O)NC(C)C)c(-c4ccccc4)c23)C1 [drawing 1059]
76 to 100%	76 to 100%	76 to 100%	76 to 100%	76 to 100%	76 to 100%	–	–	–	–	–	–	COCCNC(=O)c1sc2nc(-c3nccn3C)nc(N[C@@H]3CC[C@H](OC)C3)c2c1-c1ccccc1 [drawing 1060]
76 to 100%	76 to 100%	51 to 75%	51 to 75%	76 to 100%	76 to 100%	–	–	–	–	–	–	CO[C@H]1CC[C@@H](Nc2nc(-c3nccn3C)nc3sc(C(=O)N4CCCC4)c(-c4ccccc4)c23)C1 [drawing 1061]
